Test results reported in patent publication US20240196886A1, “ANTIBACTERIAL AND/OR ANTIVIRAL COATINGS” (CODIKOAT LTD, priority 2021, published 2024).

Columns and labels:
[1] = test system: cell lines; test: Toxicity on cell lines seen in the antiviral experiments; details: 8% PVA + glutaraldehyde coatings
[2] = test system: cell lines
[3] = test system: murine coronavirus (MHV); test: Powdered alcohol mixed directly with MHV, L929 cell infection/TCID50 assay; format: cell-based, Mouse Hepatitis Virus; details: FIG. 6; CD encapsulated ethanol vs gamma-CD alone
Protocol: The powders obtained in Example 1 were tested for their effectiveness in inactivating the murine coronavirus in 5 minutes using L929 cells. L929 cells at 5×10^5 cells/ml concentration in 100 μl volume in a 96 wells format were used. First, the virus stock was diluted 10 times in 1×PBS. Then 20 μl MHV (multiplicity of infection [MOI] 3.0) was mixed with 10 mg and 20 mg powdered alcohol for 5 minutes at room temperature with repetitive pipetting to maximise the interaction between the virus and powdered alcohol. To mitigate the potential side effects of the powdered alcohol on L929 cells, powder treated cell culture media (cDMEM) was prepared as a control. After recovering the virus and the control media from the mixture, treated samples (triplicates) were immediately diluted in 20 μl cDMEM, thereby bringing the final MOI to 1.0. In a 96 wells format, 8 serial dilutions (DF=5.0) were prepared per sample together with non-treated virus and cell culture media (cDMEM) as positive and negative controls, respectively. Cell infection phenotype as cell death and cytopathic effect (CPE) was observed under a benchtop light microscope (20× magnification) at 24-, 48- and 72-hours post infection (hpi) intervals (FIG. 4). TCID50/ml values per experiment were calculated at 72 hpi using Reed&Muench Calculator. […]

## O=CCCCC=O [glutaraldehyde]
[1]
  glutaraldehyde concentration above which toxicity on cell lines was observed: higher than 0.7%

## OCl [HOCl, hypochlorous acid]
[2]
  cell death and toxicity: cell death and toxicity were observed

## OC[C@H]1O[C@@H]2O[C@H]3[C@H](O)[C@@H](O)[C@@H](O[C@H]4[C@H](O)[C@@H](O)[C@@H](O[C@H]5[C@H](O)[C@@H](O)[C@@H](O[C@H]6[C@H](O)[C@@H](O)[C@@H](O[C@H]7[C@H](O)[C@@H](O)[C@@H](O[C@H]8[C@H](O)[C@@H](O)[C@@H](O[C@H]9[C@H](O)[C@@H](O)[C@@H](O[C@H]1[C@H](O)[C@H]2O)O[C@@H]9CO)O[C@@H]8CO)O[C@@H]7CO)O[C@@H]6CO)O[C@@H]5CO)O[C@@H]4CO)O[C@@H]3CO [CD alone, gamma-cyclodextrin]
[3]
  log reduction: 1 log
